Results taken from PMC4627284, “High-throughput simultaneous screen and counterscreen identifies homoharringtonine as synthetic lethal with von Hippel-Lindau loss in renal cell carcinoma” (Oncotarget, 2015).

Tested on: VHL-deficient 786-O cells
Test: High-throughput simultaneous screen and counterscreen, 1:1 mix of EV^GFP and VHL^mCh 786-O cells, fluorescence imaging
Format: cell-based, human
Settings: library at 5 μM, 48 hours, in the presence of 2 nM rapamycin
Description: To identify small molecule compounds synthetic lethal with VHL, we carried out an unbiased cell-based screen of a chemical library of ~12,800 compounds using 786-O cells, an extensively studied cell line derived from a VHL-deficient primary human ccRCC [26]. 786-O cells were stably transfected with either an empty vector (EV) control or reconstituted with an HA-tagged VHL cDNA. […] To distinguish between the two otherwise isogenic cell lines, we transduced the VHL-deficient 786-O cells with a histone H2B-GFP reporter and the VHL-reconstituted cells with an H2B-mCherry reporter. The histone proteins drive the fluorochrome to nuclei facilitating cell identification and segmentation algorithms (Figure 1A and 1B). […]
Figure 1 Screening strategy to identify compounds that are synthetic lethal with VHL A. Schematic diagram of a ~12,800 chemical library synthetic lethal screen. […] Fluorescence imaging (using the BD Pathway 855 imager) was used to identify compounds preferentially depleting VHL-deficient/GFP-positive cells after cells were segmented. B. Left panel: Representative image of fluorescence signal from Hoescht-labeled 786-O cells. Right panel: overlay of GFP fluorescence signal (green; from 786-O EV^GFP cells) and mCherry fluorescence nuclear signal (red; VHL^mCh cells). […] Toxicity was determined as ≤100 VHL^mCh cells per field. […]

SMILES: COC(=O)C[C@](O)(CCCC(C)(C)O)C(=O)O[C@@H]1C(OC)=C[C@]23CCCN2CCc2cc4c(cc2[C@H]13)OCO4 [HHT, homoharringtonine]
- synthetic lethality with VHL in the screen: synthetic lethal compound effective against VHL-deficient ccRCC cells
